Laboratory results from ChEMBL document CHEMBL1201861, “Genomics of Drug Sensitity in Cancer screening data, Wellcome Trust Sanger Institute”.

What was measured:
Assay in all cases: cells
Format in all cases: functional, cell-based, Homo sapiens
[1] = system: BHT-101; settings: Homo sapiens, BHT-101
Description: SANGER: Inhibition of human BHT-101 cell growth in a cell viability assay.

[2] = system: HCC1937; settings: Homo sapiens, HCC1937;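 further: growth inhibition measured with a cell viability read-out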
Description: SANGER: Inhibition of human HCC1937 cell growth in a cell viability assay.

[3] = system: VMRC-RCZ; settings: Homo sapiens, VMRC-RCZ;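 further: growth inhibition measured with a cell viability assay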
Description: SANGER: Inhibition of human VMRC-RCZ cell growth in a cell viability assay.

[4] = system: CAL-12T; settings: Homo sapiens, CAL-12T;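 further: growth inhibition of human CAL-12T cells, read out with a cell viability assay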
Description: SANGER: Inhibition of human CAL-12T cell growth in a cell viability assay.

[5] = system: SW900; settings: Homo sapiens, SW900;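 further: IC50 is the concentration that inhibits SW900 cell growth, measured by a cell viability assay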
Description: SANGER: Inhibition of human SW900 cell growth in a cell viability assay.

[6] = system: KLE; settings: Homo sapiens, KLE;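 further: growth inhibition of human KLE cells, read out with a cell viability assay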
Description: SANGER: Inhibition of human KLE cell growth in a cell viability assay.

[7] = system: SNU-C2B; settings: Homo sapiens, SNU-C2B;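 further: cell viability readout used to measure compound-driven suppression of SNU-C2B cell proliferation, IC50 marking half-maximal growth inhibition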
Description: SANGER: Inhibition of human SNU-C2B cell growth in a cell viability assay.

[8] = system: GR-ST; settings: Homo sapiens, GR-ST
Description: SANGER: Inhibition of human GR-ST cell growth in a cell viability assay.

[9] = system: A388; settings: Homo sapiens, A388;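 further: growth inhibition of human A388 cells, read out with a cell viability assay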
Description: SANGER: Inhibition of human A388 cell growth in a cell viability assay.

[10] = system: LXF-289 cell line; settings: Homo sapiens, LXF-289
Description: SANGER: Inhibition of human LXF-289 cell growth in a cell viability assay.

[11] = system: K562; settings: Homo sapiens, K562
Description: SANGER: Inhibition of human K-562 cell growth in a cell viability assay.

[12] = system: C8166; settings: Homo sapiens, C8166;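 further: growth inhibition of human C8166 cells measured by a cell viability assay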
Description: SANGER: Inhibition of human C8166 cell growth in a cell viability assay.

[13] = system: KYSE-510; settings: Homo sapiens, KYSE-510;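 further: cell viability readout used to measure how strongly growth of the cell line is suppressed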
Description: SANGER: Inhibition of human KYSE-510 cell growth in a cell viability assay.

[14] = system: D-336MG; settings: Homo sapiens, D-336MG
Description: SANGER: Inhibition of human D-336MG cell growth in a cell viability assay.

[15] = system: LU-139; settings: Homo sapiens, LU-139
Description: SANGER: Inhibition of human LU-139 cell growth in a cell viability assay.

| IC50 [1] [nM] | IC50 [2] [nM] | IC50 [3] [nM] | IC50 [4] [nM] | IC50 [5] [nM] | IC50 [6] [nM] | IC50 [7] [nM] | IC50 [8] [nM] | IC50 [9] [nM] | IC50 [10] [nM] | IC50 [11] [nM] | IC50 [12] [nM] | IC50 [13] [nM] | IC50 [14] [nM] | IC50 [15] [nM] | Structure (SMILES) |
| --- | --- | --- | --- | --- | --- | --- | --- | --- | --- | --- | --- | --- | --- | --- | --- |
| 820 | – | – | – | – | – | – | – | – | – | – | – | – | – | – | CCc1cncnc1N1CCN(Cc2nc3cc(C(F)(F)F)ccc3[nH]2)CC1 |
| – | > 500 | > 500 | > 500 | > 500 | > 500 | > 500 | > 500 | > 500 | > 500 | > 500 | > 500 | > 500 | > 500 | > 500 | COc1cc2ncnc(Nc3ccc(F)c(Cl)c3)c2cc1OCCCN1CCOCC1 [GEFITINIB] |
